Here are results for 15 molecules from patent publication EP4741392A1, “1H-PYRAZOLO[4,3-C]PYRIDINE COMPOUND, AND COMPOSITION THEREOF AND USE THEREOF” (Shenzhen TargetRx Co., Ltd., priority 2023, dated 2025).

For one test, the target named is T1, BTK C481S (Homo sapiens, UniProt Q06187, C481S).
T1 construct: purchased Carna 08-547
Description: Kinase activity inhibition assay (HTRF TK Kit). It counts as biochemical. Put shortly:
(§1)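 IC50 was fitted (four-parameter logistic) from % inhibition computed from the 665/620 nm TR-FRET ratio, with no-kinase wells as blank and DMSO-plus-kinase wells as positive control. Compound, substrate/ATP and enzyme were combined on ice and reacted at room temperature. Biotin-substrate phosphorylation was detected with cryptate antibody/XL665 after 1 h.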
A general note: In TR-FRET formats the signal depends on donor and acceptor labels being close together.

The next test deals with T2, BTK T474I (Homo sapiens, UniProt Q06187, T474I).
T2 construct: purchased SignalChem B10-12HH
Kind of test: Kinase activity inhibition assay (HTRF TK Kit). It counts as biochemical. A digest of the protocol: as §1

The next test has as its target T3, BTK kinase (Homo sapiens, UniProt Q06187).
T3 construct: purchased Invitrogen PV3587
Kind of test: Kinase activity inhibition assay (HTRF TK Kit). It counts as biochemical. Put shortly: as §1

For the next test, the system named is Ramos cells with BTK WT. Description: Phosphor-BTK(Y223) assay, suspended cells. In kind it is cell-based. The settings on record: Homo sapiens, Ramos, phosphorylated BTK Y223, Ramos cells with BTK WT. A digest of the protocol: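 Ramos BTK WT cells (2.5 k/well) were treated with compound dilutions for 2 h at 37 °C, then 5 mM Na3VO4 for 3 h. Lysates were read by HTRF p-BTK(Y223) cryptate/d2 antibodies overnight at RT (665/620 ratio). IC50 came from a four-parameter fit of % inhibition versus blank and positive-control wells.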

T2 sequence (Q06187 whole entry T474I): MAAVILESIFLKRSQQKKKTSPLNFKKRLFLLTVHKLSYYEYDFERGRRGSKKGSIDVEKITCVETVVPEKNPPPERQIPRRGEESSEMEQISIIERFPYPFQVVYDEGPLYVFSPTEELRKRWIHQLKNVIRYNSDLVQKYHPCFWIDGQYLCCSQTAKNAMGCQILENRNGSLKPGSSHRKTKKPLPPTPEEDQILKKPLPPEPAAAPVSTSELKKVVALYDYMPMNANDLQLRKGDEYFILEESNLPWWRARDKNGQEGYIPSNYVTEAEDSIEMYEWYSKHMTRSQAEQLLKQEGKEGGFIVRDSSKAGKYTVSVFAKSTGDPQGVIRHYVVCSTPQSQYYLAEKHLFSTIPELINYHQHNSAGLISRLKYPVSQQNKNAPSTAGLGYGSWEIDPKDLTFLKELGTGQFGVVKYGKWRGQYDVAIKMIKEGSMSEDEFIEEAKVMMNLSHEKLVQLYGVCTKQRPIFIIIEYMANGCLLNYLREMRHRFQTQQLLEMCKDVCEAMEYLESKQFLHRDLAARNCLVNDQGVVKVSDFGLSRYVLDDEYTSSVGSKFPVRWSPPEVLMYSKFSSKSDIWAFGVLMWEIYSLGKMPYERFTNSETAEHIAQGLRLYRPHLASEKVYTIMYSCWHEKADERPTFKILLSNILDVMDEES
T3 sequence (Q06187 whole entry): as the sequence (Q06187 whole entry T474I) above, with I474T counted along it
T1 sequence (Q06187 whole entry C481S): as the sequence (Q06187 whole entry T474I) above, with I474T, C481S counted along it

`COc1ccc(F)cc1C(=O)NCc1ccc(-c2ncc(-c3ccc(OCCN4CCCC4)cn3)c3[nH]nc(N)c23)cc1` [Example 62, N-(4-(3-amino-7-(5-(2-(pyrrolidin-1-yl)ethoxy)pyridin-2-yl)-1H-pyrazolo[4,3-c]pyridin-4-yl)benzyl)-5-fluoro-2-methoxybenzamide]: the IC50 (usually the concentration needed to halve the response being measured) at BTK C481S lay in the range of 1 to 5 nM; on BTK T474I, 5 to 50 nM; on BTK kinase, 1 to 5 nM; in the test on Ramos cells with BTK WT, 5 to 10 nM.
As for `COc1ccc(F)cc1C(=O)NCc1ccc(-c2ncc(-c3ccc(C(C)(C)O)cn3)c3[nH]nc(N)c23)cc1` [Example 65, N-(4-(3-amino-7-(5-(2-hydroxypropan-2-yl)pyridin-2-yl)-1H-pyrazolo[4,3-c]pyridin-4-yl)benzyl)-5-fluoro-2-methoxybenzamide], the IC50 was 1 to 5 nM on BTK C481S, 1 to 5 nM at BTK T474I, 1 to 5 nM at BTK kinase and no more than 5 nM in the test with Ramos cells with BTK WT.
Take `COc1ccc(F)cc1C(=O)NCc1ccc(-c2ncc(-c3ccc(CN4CCCCC4)cn3)c3[nH]nc(N)c23)cc1` [Example 66, N-(4-(3-amino-7-(5-(piperidin-1-ylmethyl)pyridin-2-yl)-1H-pyrazolo[4,3-c]pyridin-4-yl)benzyl)-5-fluoro-2-methoxybenzamide]: the IC50 on BTK C481S was no more than 1 nM; at BTK T474I it was 5 to 50 nM; on BTK kinase, no more than 1 nM; with Ramos cells with BTK WT it was 5 to 10 nM.
`COc1ccc(F)cc1C(=O)NCc1ccc(-c2ncc(-c3ccc(CN4CCOCC4)cn3)c3[nH]nc(N)c23)cc1` [Example 67, N-(4-(3-amino-7-(5-(morpholinomethyl)pyridin-2-yl)-1H-pyrazolo[4,3-c]pyridin-4-yl)benzyl)-5-fluoro-2-methoxybenzamide]: the IC50 was no more than 1 nM on BTK C481S, 50 to 500 nM at BTK T474I, no more than 1 nM on BTK kinase and no more than 5 nM in the test on Ramos cells with BTK WT.
In the case of `COc1ccc(F)cc1C(=O)NCc1ccc(-c2ncc(-c3ccc(CN4CCN(C)CC4)cn3)c3[nH]nc(N)c23)cc1` [Example 68, N-(4-(3-amino-7-(5-((4-methylpiperazin-1-yl)methyl)pyridin-2-yl)-1H-pyrazolo[4,3-c]pyridin-4-yl)benzyl)-5-fluoro-2-methoxybenzamide], the IC50 on BTK C481S is 1 to 5 nM; at BTK T474I, 5 to 50 nM; on BTK kinase it was 1 to 5 nM; in the test on Ramos cells with BTK WT it was no more than 5 nM.
In the case of `COc1ccc(F)cc1C(=O)NCc1ccc(-c2ncc(-c3cc4ccccn4n3)c3[nH]nc(N)c23)cc1` [Example 69, N-(4-(3-amino-7-(pyrazolo[1,5-a]pyridin-2-yl)-1H-pyrazolo[4,3-c]pyridin-4-yl)benzyl)-5-fluoro-2-methoxybenzamide], the IC50 at BTK C481S was no more than 1 nM; on BTK T474I, 5 to 50 nM; on BTK kinase, no more than 1 nM; with Ramos cells with BTK WT it was no more than 5 nM.
Turning to `COc1ccc(F)cc1C(=O)NCc1ccc(-c2ncc(-c3cnn4cccnc34)c3[nH]nc(N)c23)cc1` [Example 70, N-(4-(3-amino-7-(pyrazolo[1,5-a]pyrimidin-3-yl)-1H-pyrazolo[4,3-c]pyridin-4-yl)benzyl)-5-fluoro-2-methoxybenzamide], the concentration for half-maximal inhibition (IC50) is 1 to 5 nM on BTK C481S, 50 to 500 nM at BTK T474I, 1 to 5 nM at BTK kinase and no more than 5 nM with Ramos cells with BTK WT.
For `COc1ccc(F)cc1C(=O)NCc1ccc(-c2ncc(-c3cc4n(n3)CCN(C)C4)c3[nH]nc(N)c23)cc1` [Example 71, N-(4-(3-amino-7-(5-methyl-4,5,6,7-tetrahydropyrazolo[1,5-a]pyrazin-2-yl)-1H-pyrazolo[4,3-c]pyridin-4-yl)benzyl)-5-fluoro-2-methoxybenzamide], the IC50 is no more than 1 nM on BTK C481S, 5 to 50 nM on BTK T474I, 1 to 5 nM on BTK kinase and no more than 5 nM in the test on Ramos cells with BTK WT.
The like results for `CCN1CCn2nc(-c3cnc(-c4ccc(CNC(=O)c5cc(F)ccc5OC)cc4)c4c(N)n[nH]c34)cc2C1` [Example 72, N-(4-(3-amino-7-(5-ethyl-4,5,6,7-tetrahydropyrazolo[1,5-a]pyrazin-2-yl)-1H-pyrazolo[4,3-c]pyridin-4-yl)benzyl)-5-fluoro-2-methoxybenzamide] were, in that order, no more than 1 nM, 5 to 50 nM, no more than 1 nM and no more than 5 nM.
For the molecule `COc1ccc(F)cc1C(=O)NCc1ccc(-c2ncc(-c3ccc(N4CCN(C)CC4)cn3)c3[nH]nc(N)c23)cc1` [Example 73, N-(4-(3-amino-7-(5-(4-methylpiperazin-1-yl)pyridin-2-yl)-1H-pyrazolo[4,3-c]pyridin-4-yl)benzyl)-5-fluoro-2-methoxybenzamide], the IC50 is no more than 1 nM on BTK C481S, 5 to 50 nM on BTK T474I, no more than 1 nM at BTK kinase and no more than 5 nM with Ramos cells with BTK WT.
Take `COc1ccc(F)cc1C(=O)NCc1ccc(-c2ncc(-c3ccc(N4CCN(C)C[C@@H]4C)cn3)c3[nH]nc(N)c23)cc1` [Example 74, (S)-N-(-4-(3-amino-7-(5-(2,4-dimethylpiperazin-1-yl)pyridin-2-yl) 1H-pyrazolo[4,3-c]pyridin-4-yl)benzyl)-5-fluoro-2-methoxybenzamide]: the IC50 was 1 to 5 nM on BTK C481S, 5 to 50 nM on BTK T474I, 1 to 5 nM on BTK kinase and no more than 5 nM in the test with Ramos cells with BTK WT.
As for `COc1ccc(F)cc1C(=O)NCc1ccc(-c2ncc(-c3ccc(N4CCN(C)C[C@H]4C)cn3)c3[nH]nc(N)c23)cc1` [Example 75, (R)-N-(-4-(3-amino-7-(5-(2,4-dimethylpiperazin-1-yl)pyridin-2-yl) 1H-pyrazolo[4,3-c]pyridin-4-yl)benzyl)-5-fluoro-2-methoxybenzamide], the IC50 on BTK C481S was no more than 1 nM; on BTK T474I it was 5 to 50 nM; on BTK kinase it was 1 to 5 nM; in the test on Ramos cells with BTK WT, no more than 5 nM.
The matching figures for `COc1ccc(F)cc1C(=O)NCc1ccc(-c2ncc(-c3ccc(N4CCOCC4)cn3)c3[nH]nc(N)c23)cc1` [Example 76, N-(4-(3-amino-7-(5-morpholinopyridin-2-yl)-1H-pyrazolo[4,3-c]pyridin-4-yl)benzyl)-5-fluoro-2-methoxybenzamide]: no more than 1 nM, 1 to 5 nM, no more than 1 nM and no more than 5 nM.
Consider `COc1ccc(F)cc1C(=O)NCc1ccc(-c2ncc(-c3nccn4cccc34)c3[nH]nc(N)c23)cc1` [Example 77, N-(4-(3-amino-7-(pyrrolo[1,2-a]pyrazin-1-yl)-1H-pyrazolo[4,3-c]pyridin-4-yl)benzyl)-5-fluoro-2-methoxybenzamide], for which the half-inhibitory concentration (IC50) at BTK C481S is 1 to 5 nM; on BTK T474I, 50 to 500 nM; on BTK kinase, 1 to 5 nM; in the test with Ramos cells with BTK WT, no more than 5 nM.
`COc1ccc(F)cc1C(=O)NCc1ccc(-c2ncc(-c3cc4cnccn4n3)c3[nH]nc(N)c23)cc1` [Example 78, N-(4-(3-amino-7-(pyrazolo[1,5-a]pyrazin-2-yl)-1H-pyrazolo[4,3-c]pyridin-4-yl)benzyl)-5-fluoro-2-methoxybenzamide]: the IC50 was no more than 1 nM on BTK C481S, 5 to 50 nM at BTK T474I, no more than 1 nM at BTK kinase and no more than 5 nM in the test on Ramos cells with BTK WT.
